Assay results: PubChem BioAssay AID1963866 (Molecular Pharmacology Branch, DTP, NCI, 2024)
pIC50: −log10 of the molar value.

Test system: PDC KRAS tumor spheroids with HUVEC/MSC, viability
Test: Anticancer human tumor 349418-098-R-PDC patient-derived lung adenocarcinoma cell line growth inhibition [KRAS2]
Details: for pIC50: curve of first compound; for viability, T/C: stronger effect = lower value
Summary of the method: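 KRAS-mutant tumor cells were grown as spheroids with HUVEC endothelial cells and human MSCs as stroma. Targeted agents were tested alone and with KRAS pathway inhibitors. Doses started at or near clinical Cmax, or 10 microM, descending half-log.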

[1] = second compound 0.1 µM, first compound 0.0316 µM
[2] = second compound 0.316 µM, first compound 0.0316 µM
[3] = second compound 1 µM, first compound 0.0316 µM
[4] = second compound 3.16 µM, first compound 0.0316 µM
[5] = second compound 10 µM, first compound 0.0316 µM
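Note: spheroids exposed to compounds for seven days before readout.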

CC(=O)Nc1cccc(-n2c(=O)n(C3CC3)c(=O)c3c(Nc4ccc(I)cc4F)n(C)c(=O)c(C)c32)c1 + C=CC(=O)N1CCN(c2nc(=O)n(-c3c(C)ccnc3C(C)C)c3nc(-c4c(O)cccc4F)c(F)cc23)C(C)C1
pIC50 (second compound 0.1 µM): > 10.00 | pIC50 (second compound 0.316 µM): > 10.00 | pIC50 (second compound 1 µM): > 10.00 | pIC50 (second compound 3.16 µM): > 10.00 | pIC50 (second compound 10 µM): > 10.00 | viability, T/C (second compound 0.1 µM, first compound 0.0001 µM): 48.6% | viability, T/C (second compound 0.1 µM, first compound 0.000316 µM): 21.9% | viability, T/C (second compound 0.1 µM, first compound 0.001 µM): 20.4% | viability, T/C (second compound 0.1 µM, first compound 0.00316 µM): 17.6% | viability, T/C (second compound 0.1 µM, first compound 0.01 µM): 11% | viability, T/C [1]: 7.55% | viability, T/C (second compound 0.316 µM, first compound 0.0001 µM): 34.9% | viability, T/C (second compound 0.316 µM, first compound 0.000316 µM): 31.2% | viability, T/C (second compound 0.316 µM, first compound 0.001 µM): 25.3% | viability, T/C (second compound 0.316 µM, first compound 0.00316 µM): 19.1% | viability, T/C (second compound 0.316 µM, first compound 0.01 µM): 11.8% | viability, T/C [2]: 9.88% | viability, T/C (second compound 1 µM, first compound 0.0001 µM): 39.4% | viability, T/C (second compound 1 µM, first compound 0.000316 µM): 34.8% | viability, T/C (second compound 1 µM, first compound 0.001 µM): 23.4% | viability, T/C (second compound 1 µM, first compound 0.00316 µM): 19.3% | viability, T/C (second compound 1 µM, first compound 0.01 µM): 13.4% | viability, T/C [3]: 8.89% | viability, T/C (second compound 3.16 µM, first compound 0.0001 µM): 39.5% | viability, T/C (second compound 3.16 µM, first compound 0.000316 µM): 29% | viability, T/C (second compound 3.16 µM, first compound 0.001 µM): 22% | viability, T/C (second compound 3.16 µM, first compound 0.00316 µM): 20.9% | viability, T/C (second compound 3.16 µM, first compound 0.01 µM): 13% | viability, T/C [4]: 10% | viability, T/C (second compound 10 µM, first compound 0.0001 µM): 25.4% | viability, T/C (second compound 10 µM, first compound 0.000316 µM): 17.4% | viability, T/C (second compound 10 µM, first compound 0.001 µM): 18.2% | viability, T/C (second compound 10 µM, first compound 0.00316 µM): 15.9% | viability, T/C (second compound 10 µM, first compound 0.01 µM): 10.7% | viability, T/C [5]: 9.82%

CCNC(=O)CC1N=C(c2ccc(Cl)cc2)c2cc(OC)ccc2-n2c(C)nnc21 (stereo not given) + C=CC(=O)N1CCN(c2nc(=O)n(-c3c(C)ccnc3C(C)C)c3nc(-c4c(O)cccc4F)c(F)cc23)C(C)C1
pIC50 (second compound 0.1 µM): 6.88 | pIC50 (second compound 0.316 µM): 6.86 | pIC50 (second compound 1 µM): 6.73 | pIC50 (second compound 3.16 µM): 6.85 | pIC50 (second compound 10 µM): > 7.50 | viability, T/C [1]: 84.2% | viability, T/C (second compound 0.1 µM, first compound 0.1 µM): 55.5% | viability, T/C (second compound 0.1 µM, first compound 0.316 µM): 31.9% | viability, T/C (second compound 0.1 µM, first compound 1 µM): 11.2% | viability, T/C (second compound 0.1 µM, first compound 3.16 µM): 1.81% | viability, T/C (second compound 0.1 µM, first compound 10 µM): 0.76% | viability, T/C [2]: 83% | viability, T/C (second compound 0.316 µM, first compound 0.1 µM): 54% | viability, T/C (second compound 0.316 µM, first compound 0.316 µM): 37% | viability, T/C (second compound 0.316 µM, first compound 1 µM): 11.2% | viability, T/C (second compound 0.316 µM, first compound 3.16 µM): 1.1% | viability, T/C (second compound 0.316 µM, first compound 10 µM): 0.76% | viability, T/C [3]: 78.3% | viability, T/C (second compound 1 µM, first compound 0.1 µM): 60.4% | viability, T/C (second compound 1 µM, first compound 0.316 µM): 41.4% | viability, T/C (second compound 1 µM, first compound 1 µM): 6.68% | viability, T/C (second compound 1 µM, first compound 3.16 µM): 2.48% | viability, T/C (second compound 1 µM, first compound 10 µM): 0.75% | viability, T/C [4]: 69.9% | viability, T/C (second compound 3.16 µM, first compound 0.1 µM): 52.9% | viability, T/C (second compound 3.16 µM, first compound 0.316 µM): 37.9% | viability, T/C (second compound 3.16 µM, first compound 1 µM): 9.47% | viability, T/C (second compound 3.16 µM, first compound 3.16 µM): 2.07% | viability, T/C (second compound 3.16 µM, first compound 10 µM): 0.56% | viability, T/C [5]: 44.4% | viability, T/C (second compound 10 µM, first compound 0.1 µM): 28.8% | viability, T/C (second compound 10 µM, first compound 0.316 µM): 6.81% | viability, T/C (second compound 10 µM, first compound 1 µM): 2.7% | viability, T/C (second compound 10 µM, first compound 3.16 µM): 1.1% | viability, T/C (second compound 10 µM, first compound 10 µM): 0.62%
